The text below walks through data of patent publication US20240368173A1, “TRICYCLIC GPR65 MODULATORS” (PATHIOS THERAPEUTICS LIMITED, priority 2021, published 2024).

pIC50: −log10 of the molar value.

The target of one experiment is human recombinant GPR65 (Homo sapiens, UniProt Q8IYL9). Description: Human GPR65 cAMP HTRF antagonist assay. It is filed as cell-based.
Chain of human recombinant GPR65 (Q8IYL9 whole entry): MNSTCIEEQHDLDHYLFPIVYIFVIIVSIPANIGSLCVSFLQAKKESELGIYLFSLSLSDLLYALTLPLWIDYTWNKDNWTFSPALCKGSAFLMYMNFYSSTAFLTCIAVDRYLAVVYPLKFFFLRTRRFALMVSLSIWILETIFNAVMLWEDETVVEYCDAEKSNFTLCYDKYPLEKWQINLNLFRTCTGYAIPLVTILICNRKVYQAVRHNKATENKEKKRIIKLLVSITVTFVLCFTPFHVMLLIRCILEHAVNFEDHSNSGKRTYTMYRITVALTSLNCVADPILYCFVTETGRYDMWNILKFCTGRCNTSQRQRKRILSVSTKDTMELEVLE
Conditions: not given
An excerpt:
In one preferred embodiment, the compound prevents the increase in cytoplasmic cAMP levels expected following GPR65 activation at acidic pH. This prevention of cAMP accumulation in turn prevents downstream signalling through ICER, as described above. The “Human GPR65 cyclic adenosine monophosphate (cAMP) Homogeneous Time Resolved Fluorescence (HTRF) antagonist assay”, or simply “cAMP assay”, as described in the accompanying examples, can be used to measure the potency of GPR65 modulators, which is expressed as the concentration of compound required to reduce the increase in cAMP concentration upon GPR65 activation by 50% (i.e. an IC50).
Human GPR65 Cyclic Adenosine Monophosphate (cAMP) Homogeneous Time Resolved Fluorescence (HTRF) Antagonist Assay Procedure
IC50 data was obtained by the following procedure:
1321N1 human astrocytoma cells stably expressing human recombinant GPR65 (1321N1-hrGPR65 cells, EuroscreenFast) were cultured according to the vendor's instructions.
Compounds were tested for their ability to antagonise GPR65, through measuring the concentration of cytoplasmic cAMP following treatment of the cells at a pH of 7.2 to activate GPR65 signalling and addition of the compound to be tested. The extent to which the expected rise in cAMP concentration upon GPR65 activation was suppressed by the added compound is indicative of its potency. The assay was carried out according to EuroscreenFast assay Methodology as follows.
On the day of the assay, test compounds were added to 384-well, low volume, white microtiter plates by acoustic dispensing. KRH buffer (5 mM KCl, 1.25 mM MgSO4, 124 mM NaCl, 25 mM HEPES, 13.3 mM Glucose, 1.25 mM KH2PO4 and 1.45 mM CaCl2) was adjusted to pH 6.5, pH 7.6 and pH 8.4 by adding NaOH. 1321N1-hGPR65 cells were rapidly thawed and diluted in KRH, pH 7.6 prior to centrifugation at 300×g for 5 min and resuspension in assay buffer (KRH, pH 7.6, supplemented with 1 mM 3-isobutyl-1-methylxanthine (IBMX) and 200 μM ethylenediaminetetraacetic acid (EDTA)). Cells were added to assay plates at a density of 2,000 cells per well in a volume of 5 μl. Assay plates were briefly centrifuged at 100×g and then incubated at room temperature for 30 min. Cells were stimulated by the addition of 5 μL KRH, pH 6.5, to achieve an assay pH of 7.2, while control wells received 5 μl KRH, pH 8.4 to achieve an assay pH of 7.9. Assay plates were briefly centrifuged at 100×g and then incubated at room temperature for 30 min.
Accumulation of cAMP was detected by cAMP HTRF kit (Cisbio). d2-labeled cAMP and cryptate-labeled anti-cAMP antibody in Lysis and Detection Buffer (Cisbio) were added to assay plates, and the plates were incubated at room temperature for 1 h. HTRF measurements were performed using a Pherastar FSX instrument. Acceptor and donor emission signals were measured at 665 nm and 620 nm, respectively, and HTRF ratios were calculated as signal665 nm/signal620 nm×10^4. Data were normalised to high and low control values and fitted with 4-parameter logistic regression to determine hGPR65 IC50 values for the test compounds, which are shown in Table 1.
`CN(C)CCOc1ccc(-c2cc(F)c(NC(=O)N3[C@H]4CC[C@@H]3c3ccnc(F)c3C4)cc2Cl)cn1` [Compound 301, (5R,8S)-N-(5-Chloro-4-(6-(2-(dimethylamino)ethoxy)pyridin-3-yl)-2-fluorophenyl)-1-fluoro-6,7,8,9-tetrahydro-5H-5,8-epiminocyclohepta[c]pyridine-10-carboxamide]: the pIC50 was above 6.30.
`CC(C)Oc1ccc(-c2cc(F)c(NC(=O)N3[C@H]4CC[C@@H]3c3c[nH]c(=O)cc3C4)cc2Cl)cn1` [Compound 273, (6S,9R)-N-(5-Chloro-2-fluoro-4-(6-isopropoxypyridin-3-yl)phenyl)-3-oxo-3,5,6,7,8,9-hexahydro-2H-6,9-epiminocyclohepta[c]pyridine-10-carboxamide]: the negative-log IC50 (pIC50) was above 6.30.
Still for that read-out and setting: the same measure for `O=C(Nc1cc(Cl)c(C(F)(F)F)cc1F)N1[C@@H]2CC[C@H]1[C@H](F)c1c2ccnc1F` [Compound 193, (5R,8S,9R)-N-(5-Chloro-2-fluoro-4-(trifluoromethyl)phenyl)-1,9-difluoro-6,7,8,9-tetrahydro-5H-5,8-epiminocyclohepta[c]pyridine-10-carboxamide]: above 6.30; for `O=C(Nc1cc(Cl)c(OC2CCC2)cc1F)N1C2CCC1c1n[nH]c(=O)cc1C2` (racemic) [Compound 51, (±)-N-(5-Chloro-4-cyclobutoxy-2-fluorophenyl)-3-oxo-3,5,6,7,8,9-hexahydro-2H-6,9-epiminocyclohepta[c]pyridazine-10-carboxamide]: above 6.30.
The same measure, in the same setting: for `O=C(Nc1cc(C(F)(F)F)on1)N1C2CCC1c1n[nH]c(=O)cc1C2` (racemic) [Compound 44, (±)-3-Oxo-N-(5-(trifluoromethyl)isoxazole-3-yl)-3,5,6,7,8,9-hexahydro-2H-6,9-epiminocyclohepta[c]pyridazine-10-carboxamide] the value was above 6.30.
As to `O=C(Nc1cc(Cl)c(-c2ccc3nsnc3c2)cc1F)N1[C@H]2CC[C@@H]1c1c[nH]c(=O)cc1C2` [Compound 176, (6S,9R)-N-(4-(benzo[c][1,2,5]thiadiazol-5-yl)-5-chloro-2-fluorophenyl)-3-oxo-3,5,6,7,8,9-hexahydro-2H-6,9-epiminocyclohepta[c]pyridine-10-carboxamide], the pIC50 was above 6.30.
Still for that read-out and setting: for `O=C(Nc1cc(Cl)c(-c2ccnc(F)c2)cc1F)N1[C@H]2CC[C@@H]1c1n[nH]c(=O)cc1C2` [Compound 266, (6S,9R)-N-(5-Chloro-2-fluoro-4-(2-fluoropyridin-4-yl)phenyl)-3-oxo-3,5,6,7,8,9-hexahydro-2H-6,9-epiminocyclohepta[c]pyridazine-10-carboxamide] the value was above 6.30.
In the case of `CO[C@H]1CC[C@H](Oc2ccc(-c3cc(F)c(NC(=O)N4[C@H]5CC[C@@H]4c4n[nH]c(=O)cc4C5)cc3Cl)cn2)CC1` [Compound 337, (6S,9R)-N-(5-chloro-2-fluoro-4-(6-(((1r,4r)-4-methoxycyclohexyl)oxy)pyridin-3-yl)phenyl)-3-oxo-3,5,6,7,8,9-hexahydro-2H-6,9-epiminocyclohepta[c]pyridazine-10-carboxamide], the pIC50 is above 6.30.
Still for that read-out and setting: for `O=C(Nc1cc(Cl)c(-c2ccc(OC3COC3)nc2)cc1F)N1[C@H]2CC[C@@H]1c1n[nH]c(=O)cc1C2` [Compound 275, (6S,9R)-N-(5-Chloro-2-fluoro-4-(6-(oxetan-3-yloxy)pyridin-3-yl)phenyl)-3-oxo-3,5,6,7,8,9-hexahydro-2H-6,9-epiminocyclohepta[c]pyridazine-10-carboxamide] the value was above 6.30.
On to `O=C(Nc1cc(Cl)c(C(F)(F)F)cc1F)N1C2CCC1[C@H](F)c1c2ccnc1F` (mixture of isomers) [Compound 157, (±)-(9R)—N-(5-Chloro-2-fluoro-4-(trifluoromethyl)phenyl)-1,9-difluoro-6,7,8,9-tetrahydro-5H-5,8-epiminocyclohepta[c]pyridine-10-carboxamide], for which the negative-log IC50 (pIC50) was above 6.30.
Consider `O=C(Nc1cc(Cl)c(-c2ccc3nonc3c2)cc1F)N1[C@H]2CC[C@@H]1c1ccnc(F)c1C2` [Compound 162, (5R,8S)-N-(4-(Benzo[c][1,2,5]oxadiazol-5-yl)-5-chloro-2-fluorophenyl)-1-fluoro-6,7,8,9-tetrahydro-5H-5,8-epiminocyclohepta[c]pyridine-10-carboxamide], for which the pIC50 was above 6.30.
With `CO[C@H]1C[C@H](Oc2ccc(-c3cc(F)c(NC(=O)N4[C@H]5CC[C@@H]4c4c[nH]c(=O)cc4C5)cc3Cl)cn2)C1` [Compound 317, (6S,9R)-N-(5-Chloro-2-fluoro-4-(6-((1r,3R)-3-methoxycyclobutoxy)pyridin-3-yl)phenyl)-3-oxo-3,5,6,7,8,9-hexahydro-2H-6,9-epiminocyclohepta[c]pyridine-10-carboxamide], the negative-log IC50 (pIC50) is above 6.30.
On the same count and under the same terms, the same measure for `COCCNc1ncc(-c2cc(F)c(NC(=O)N3[C@H]4CC[C@@H]3c3n[nH]c(=O)cc3C4)cc2Cl)cn1` [Compound 121, (6S,9R)-N-(5-Chloro-2-fluoro-4-(2-((2-methoxyethyl)amino)pyrimidin-5-yl)phenyl)-3-oxo-3,5,6,7,8,9-hexahydro-2H-6,9-epiminocyclohepta[c]pyridazine-10-carboxamide]: above 6.30; for `N#Cc1cc(NC(=O)N2[C@H]3CC[C@@H]2c2n[nH]c(=O)cc2C3)c(F)cc1Cl` [Compound 112, (6S,9R)-N-(4-Chloro-5-cyano-2-fluorophenyl)-3-oxo-3,5,6,7,8,9-hexahydro-2H-6,9-epiminocyclohepta[c]pyridazine-10-carboxamide]: above 6.30; for `O=C(Nc1cc(C(F)(F)F)c(-c2cnc3nonc3c2)cc1F)N1[C@H]2CC[C@@H]1c1n[nH]c(=O)cc1C2` [Compound 269, (6S,9R)-N-(4-([1,2,5]Oxadiazolo[3,4-b]pyridin-6-yl)-2-fluoro-5-(trifluoromethyl)phenyl)-3-oxo-3,5,6,7,8,9-hexahydro-2H-6,9-epiminocyclohepta[c]pyridazine-10-carboxamide]: above 6.30.

Still in this experiment, the particulars now being: 1321N1-hrGPR65 cells, cAMP HTRF, assay pH 7.2; read-out: hGPR65 IC50 (Activity of selected compounds according to the invention).
Consider `O=C(Nc1cc(Br)c(C(F)(F)F)cc1F)N1[C@@H]2CC[C@H]1c1c[nH]c(=O)nc1C2` [Compound 29, (5S,8R)-N-(5-Bromo-2-fluoro-4-(trifluoromethyl)phenyl)-2-oxo-3,5,6,7,8,9-hexahydro-2H-5,8-epiminocyclohepta[d]pyrimidine-10-carboxamide], for which the negative-log IC50 (pIC50) was below 5.30.
As for `CC(=O)Nc1ccc(-c2cc(F)c(NC(=O)N3[C@H]4CC[C@@H]3c3n[nH]c(=O)cc3C4)cc2Cl)cn1` [Compound 117, (6S,9R)-N-(4-(6-Acetamidopyridin-3-yl)-5-chloro-2-fluorophenyl)-3-oxo-3,5,6,7,8,9-hexahydro-2H-6,9-epiminocyclohepta[c]pyridazine-10-carboxamide], the pIC50 is 5.30 to 6.30.
Same read-out and setting: the same measure for `O=C(Nc1cc(Cl)c(-c2cn[nH]c2)cc1F)N1[C@H]2CC[C@@H]1c1n[nH]c(=O)cc1C2` [Compound 119, (6S,9R)-N-(5-Chloro-2-fluoro-4-(1H-pyrazol-4-yl)phenyl)-3-oxo-3,5,6,7,8,9-hexahydro-2H-6,9-epiminocyclohepta[c]pyridazine-10-carboxamide]: below 5.30; for `O=C(Nc1cc(Cl)c(Cl)cc1F)N1[C@H]2CC[C@@H]1c1ccnc(OC(F)F)c1C2` [Compound 93, (5R,8S)-N-(4,5-dichloro-2-fluorophenyl)-1-(difluoromethoxy)-6,7,8,9-tetrahydro-5H-5,8-epiminocyclohepta[c]pyridine-10-carboxamide]: 5.30 to 6.30.
Turning to `O=C(Nc1cc(Cl)c(Cl)cc1F)N1[C@H]2CC[C@@H]1c1c(F)ncc(Cl)c1C2` [Compound 99, (6S,9R)-4-Chloro-N-(4,5-dichloro-2-fluorophenyl)-1-fluoro-6,7,8,9-tetrahydro-5H-6,9-epiminocyclohepta[c]pyridine-10-carboxamide], the pIC50 was 5.30 to 6.30.
For the molecule `O=C(Nc1cc(Cl)c(Cl)cc1F)N1C2CCC1c1ncc(=O)[nH]c1C2` (racemic) [Compound 158, (±)—N-(4,5-Dichloro-2-fluorophenyl)-2-oxo-2,5,6,7,8,9-hexahydro-1H-5,8-epiminocyclohepta[b]pyrazine-10-carboxamide], the pIC50 is below 5.30.
